What was measured:
[1] = test system: Human RSV-B (genotype B, strain 9320); experiment: RSV-B assay (qPCR or ATPlite) in A549 cells; format: cell-based; details: human respiratory syncytial virus, 144 h, strain 9320, MOI 0.5, 6 days post infection, qPCR or ATPlite readout
Source text: Hep-2 cells, (originally derived from tumors grown in irradiated-cortisonised weanling rats that had been injected with epidermoid carcinoma tissue from a person's larynx, but later found to be indistinguishable from HeLa cells by PCR DNA analysis), were used for the culturing of genotype B, strain 9320. Flasks were inoculated with RSV-B and viral stocks were collected once cytopathic effect (CPE) was greater than 90%. Viral stocks in 25% sucrose media were snap frozen using liquid nitrogen to increase viral stability. Viral stock titers were quantified by tissue culture infectious dose 50% (TCID50) using 8,000 cells per well and 5-fold viral dilutions across a 96-well plate, cultured for 4 days. Viral stock titers were also quantified by a plaque forming unit assay, as described elsewhere.
The assay is run as follows: A549 cells (originally derived through explant culture from a person's carcinomatous lung tissue) are seeded into the inner 60 wells of a 96-well plate at 3,000 cells per well in a volume of 50 μL using A549 growth media (F-12K Media, 1% Penn/Strep, 1% nonessential amino acids, 10% heat-inactivated FBS). 2-fold serial dilutions of control and test compounds are added to the wells in duplicate in a total volume of 25 μL. Viral stock is then added to the wells at a multiplicity of infection (MOI) of 0.5 in a volume of 25 μL, bringing the total volume of each well to 100 μL. The MOI is calculated using the PFU/mL, or TCID50 if unavailable. Each 96-well plate has a control column of 6 wells with cells and virus but no compound (negative control, max CPE), a column with cells but no compound or virus (positive control, minimum CPE), and a column with no cells or virus or compound (background plate/reagent control). The control wells with cells but no virus are given an additional 25 μL of growth media containing an equal quantity of sucrose as those wells receiving the viral stock in order to keep consistent in media and volume conditions. The outer wells of the plate are filled with 125 μL of moat media (DMEM, 1% Penn/Strep) to act as a thermal and evaporative moat around the test wells. 6 days post infection, the plates are read using qPCR or ATP lite (50 μL added per well), which quantifies the amount of ATP (a measure of cell health) present in each well. Assay plates treated with APTlite are read using the Envision luminometer. […] EC50 ranges are as follows: A<0.4 μM; B 0.4-0.8 μM; C>0.8 μM.

[2] = test system: Human RSV-A (“Long” strain); experiment: RSV-A assay (CPE, ATPlite) in Hep-2 cells; format: cell-based; details: human respiratory syncytial virus, 120 h, MOI 0.1, 5-day incubation, ATPlite readout
Source text: Hep-2 cells, (originally derived from tumors grown in irradiated-cortisonised weanling rats that had been injected with epidermoid carcinoma tissue from a person's larynx, but later found to be indistinguishable from HeLa cells by PCR DNA analysis), were used for the culturing of genotype A, “Long” strain RSV. Flasks were inoculated with RSV and viral stocks were collected once cytopathic effect (CPE) was greater than 90%. Viral stocks in 25% sucrose media were snap frozen using liquid nitrogen to increase viral stability. Viral stock titers were quantified by tissue culture infectious dose 50% (TCID50) using 8,000 cells per well and 3-fold viral dilutions across a 96-well plate, cultured for 4 days. Viral stock titers were also quantified by a plaque forming unit assay, as described elsewhere.
Following extensive parameter testing, the final assay is run as follows: Hep-2 cells are seeded into the inner 60 wells of a 96-well plate at 8,000 cells per well in a volume of 50 μL using Growth Media (DMEM without phenol red, 1% L-Glut, 1% Penn/Strep, 1% nonessential amino acids, 10% heat-inactivated FBS). 2-fold serial dilutions of control and test compounds are added to the wells in duplicate in a total volume of 25 μL. Viral stock is then added to the wells at a multiplicity of infection (MOI) of 0.1 in a volume of 25 μL, bringing the total volume of each well to 100 μL. The MOI is calculated using the PFU/mL, or TCID50 if unavailable. Each 96-well plate has a control column of 6 wells with cells and virus but no compound (negative control, max CPE), a column with cells but no compound or virus (positive control, minimum CPE), and a column with no cells or virus or compound (background plate/reagent control). The control wells with cells but no virus are given an additional 25 μL of growth media containing an equal quantity of sucrose as those wells receiving the viral stock in order to keep consistent in media and volume conditions. The outer wells of the plate are filled with 125 μL of moat media (DMEM, 1% Penn/Strep) to act as a thermal and evaporative moat around the test wells. Following a 5-day incubation period, the plates are read using ATPlite (50 μL added per well), which quantifies the amount of ATP (a measure of cell health) present in each well. Assay plates are read using the Envision luminometer. In parallel, cytotoxicity is examined on an additional 96-well plate treated in an identical manner, but substituting the 25 μL of viral stock for 25 μL of growth media. […] EC50 ranges are as follows: A<0.4 μM; B 0.4-0.8 μM; C>0.8 μM.

SMILES | EC50 [1] | EC50 [2]
Cc1ncc(-c2sc(C(F)(F)F)nc2-c2nnc(NC3N=C(c4ccccc4)c4ccccc4NC3=O)o2)cn1 (centres unmarked) [Example 33] | < 400 nM | < 400 nM
CCc1ncc(-c2sc(C3(C(F)(F)F)CC3)nc2-c2nnc(N[C@@H]3N=C(c4ccccc4)c4cccc(F)c4NC3=O)o2)cn1 [Example 62] | < 400 nM | 400 to 800 nM
O=C1Nc2c(F)cccc2C(c2ccccc2)=N[C@H]1Nc1nnc(-c2nc(C3CC3)sc2-c2cnc(C3CC3)nc2)o1 [Example 47] | < 400 nM | < 400 nM
Cc1ncc(-c2sc(C3CCC3)nc2-c2nnc(N[C@H]3N=C(c4ccccc4)c4cccc(F)c4NC3=O)o2)cn1 [Example 61] | < 400 nM | < 400 nM
O=C1Nc2c(F)cccc2C(c2ccccc2)=N[C@H]1Nc1nnc(-c2nc(C3CCC3)sc2-c2cnc(C3CC3)nc2)o1 [Example 64] | < 400 nM | > 800 nM
O=C1Nc2ccccc2C(c2ccccc2)=NC1Nc1nnc(-c2ncc(C(F)(F)F)cc2-c2cnc(CO)nc2)o1 (centres unmarked) [Example 9] | > 800 nM | > 800 nM
Cc1ncc(-c2sc(C3CC3)nc2-c2nnc(N[C@@H]3N=C(c4ccccc4)c4cccc(F)c4NC3=O)o2)cn1 [Example 55] | < 400 nM | > 800 nM
O=C1Nc2ccccc2C(c2ccccc2)=N[C@@H]1Nc1nnc(-c2ncc(C(F)(F)F)cc2-c2cnc(C3CC3)nc2)o1 [Example 25] | < 400 nM | < 400 nM
Cc1ncc(-c2sc(C)nc2-c2nnc(N[C@@H]3N=C(c4ccccc4)c4cccc(F)c4NC3=O)o2)cn1 [Example 38] | < 400 nM | < 400 nM
CCc1ncc(-c2sc(C3(C)CC3)nc2-c2nnc(N[C@H]3N=C(c4ccccc4)c4cccc(F)c4NC3=O)o2)cn1 [Example 69] | < 400 nM | < 400 nM
CC(C)(F)c1ncc(-c2cc(C(F)(F)F)cnc2-c2nnc(NC3N=C(c4ccccc4)c4ccccc4NC3=O)o2)cn1 (centres unmarked) [Example 12] | > 800 nM | > 800 nM
CCc1ncc(-c2cc(C(F)(F)F)cnc2-c2nnc(N[C@H]3N=C(c4ccccc4)c4cccc(F)c4NC3=O)o2)cn1 [Example 28] | < 400 nM | < 400 nM
Cc1ncc(-c2sc(C3CCC3)nc2-c2nnc(N[C@@H]3N=C(c4ccccc4)c4cccc(F)c4NC3=O)o2)cn1 [Example 60] | < 400 nM | < 400 nM
Cc1ncc(-c2sc(C3CC3)nc2-c2nnc(N[C@H]3N=C(c4ccccc4)c4cccc(F)c4NC3=O)o2)cn1 [Example 56] | < 400 nM | < 400 nM
O=C1Nc2ccccc2C(c2ccccc2)=NC1Nc1nnc(-c2ncc(C(F)(F)F)cc2-c2cnc(C3CC3)nc2)o1 (centres unmarked) [Example 7] | < 400 nM | < 400 nM
CCc1ncc(-c2sc(C3CC3)nc2-c2nnc(N[C@@H]3N=C(c4ccccc4)c4ccccc4NC3=O)o2)cn1 [Example 49] | < 400 nM | 400 to 800 nM
CCc1ncc(-c2sc(C(F)(F)F)nc2-c2nnc(NC3N=C(c4ccccc4)c4ccccc4NC3=O)o2)cn1 (centres unmarked) [Example 35] | < 400 nM | < 400 nM
Cc1ncc(-c2sc(C3(C)CC3)nc2-c2nnc(N[C@H]3N=C(c4ccccc4)c4cccc(F)c4NC3=O)o2)cn1 [Example 67] | < 400 nM | < 400 nM
O=C1Nc2ccccc2C(c2ccccc2)=NC1Nc1nnc(-c2ncc(C(F)(F)F)cc2-c2cncnc2)o1 (centres unmarked) [Example 2] | > 800 nM | > 800 nM

SMILES | EC50 [1] | EC50 [2]
O=C1Nc2ccccc2C(c2ccccc2)=NC1Nc1nnc(-c2ncc(C(F)(F)F)cc2-c2cnc(F)nc2)o1 (centres unmarked) [Example 17] | > 800 nM | > 800 nM
C#Cc1ncc(-c2cc(C(F)(F)F)cnc2-c2nnc(NC3N=C(c4ccccc4)c4ccccc4NC3=O)o2)cn1 (centres unmarked) [Example 19] | 400 to 800 nM | > 800 nM
Cc1ncc(-c2nc(C(F)(F)F)ccc2-c2nnc(N[C@H]3N=C(c4ccccc4)c4ccccc4NC3=O)o2)cn1 [Example 21] | < 400 nM | 400 to 800 nM
O=C1Nc2c(F)cccc2C(c2ccccc2)=N[C@@H]1Nc1nnc(-c2ncc(C(F)(F)F)cc2-c2cnc(C3CC3)nc2)o1 [Example 24] | < 400 nM | < 400 nM
O=C1Nc2c(F)cccc2C(c2ccccc2)=N[C@@H]1Nc1nnc(-c2nc(C3(C(F)(F)F)CC3)sc2-c2cnc(C3CC3)nc2)o1 [Example 75] | < 400 nM | < 400 nM
O=C1Nc2ccccc2C(c2ccccc2)=NC1Nc1nnc(-c2nc(C(F)(F)F)sc2-c2cnc(C3CC3)nc2)o1 (centres unmarked) [Example 34] | < 400 nM | < 400 nM
Cc1ncc(-c2cc(C(F)(F)F)cnc2-c2nnc(NC3N=C(c4ccccc4)c4ccccc4NC3=O)o2)cn1 (centres unmarked) [Example 1] | < 400 nM | < 400 nM
O=C1Nc2c(F)cccc2C(c2ccccc2)=N[C@@H]1Nc1nnc(-c2nc(C3CCC3)sc2-c2cnc(C3CC3)nc2)o1 [Example 65] | < 400 nM | < 400 nM
CCc1ncc(-c2sc(C3CC3)nc2-c2nnc(N[C@@H]3N=C(c4ccccc4)c4cccc(F)c4NC3=O)o2)cn1 [Example 44] | < 400 nM | < 400 nM
CCc1ncc(-c2sc(C)nc2-c2nnc(N[C@H]3N=C(c4ccccc4)c4cccc(F)c4NC3=O)o2)cn1 [Example 36] | < 400 nM | < 400 nM
CC(F)(F)c1ncc(-c2cc(C(F)(F)F)cnc2-c2nnc(NC3N=C(c4ccccc4)c4ccccc4NC3=O)o2)cn1 (centres unmarked) [Example 11] | 400 to 800 nM | > 800 nM
CCc1ncc(-c2sc(C3CC3)nc2-c2nnc(N[C@H]3N=C(c4ccccc4)c4ccccc4NC3=O)o2)cn1 [Example 50] | < 400 nM | < 400 nM
CCc1ncc(-c2sc(C3(C(F)(F)F)CC3)nc2-c2nnc(N[C@H]3N=C(c4ccccc4)c4cccc(F)c4NC3=O)o2)cn1 [Example 63] | < 400 nM | < 400 nM
CCc1nc(-c2nnc(N[C@H]3N=C(c4ccccc4)c4cccc(F)c4NC3=O)o2)c(-c2cnc(C)nc2)s1 [Example 52] | < 400 nM | < 400 nM
CCc1ncc(-c2sc(C3(C)CC3)nc2-c2nnc(N[C@@H]3N=C(c4ccccc4)c4cccc(F)c4NC3=O)o2)cn1 [Example 68] | < 400 nM | < 400 nM
Cc1cnc(-c2nnc(N[C@H]3N=C(c4ccccc4)c4ccccc4NC3=O)o2)c(-c2cnc(C3CC3)nc2)c1 [Example 99] | < 400 nM | < 400 nM
O=C1Nc2c(F)cccc2C(c2ccccc2)=N[C@@H]1Nc1nnc(-c2ncc(C3CC3)cc2-c2cnc(C3CC3)nc2)o1 [Example 76] | < 400 nM | < 400 nM
Cc1nc(-c2nnc(N[C@H]3N=C(c4ccccc4)c4cccc(F)c4NC3=O)o2)c(-c2cnc(C3CC3)nc2)s1 [Example 41] | < 400 nM | < 400 nM
